Assay results from ChEMBL document CHEMBL5584309, “Discovery of Novel Mcl-1 Inhibitors with a 3-Substituted-1H-indole-1-yl Moiety Binding to the P1-P3 Pockets to Induce Apoptosis in Acute Myeloid Leukemia Cells” (J Med Chem, 2024).
The source made the active and inactive calls. No cut-off for these calls is given here.

Experiments:
HL-60 [1] = test: Antiproliferative activity against human HL-60 cells assessed as growth inhibition measured after 72 hrs by CCK-8 assay; format: functional, cell-based; details: HL-60, 72 h
[2] = target: Apoptosis regulator Bcl-2 (Homo sapiens, UniProt P10415); test: Binding affinity to Bcl-2 (unknown origin) pre-incubated for 30 mins followed by addition FAM-peptide further incubated for 20 mins by fluorescence polarization-based binding assay
Sequence of Apoptosis regulator Bcl-2 (P10415 whole entry): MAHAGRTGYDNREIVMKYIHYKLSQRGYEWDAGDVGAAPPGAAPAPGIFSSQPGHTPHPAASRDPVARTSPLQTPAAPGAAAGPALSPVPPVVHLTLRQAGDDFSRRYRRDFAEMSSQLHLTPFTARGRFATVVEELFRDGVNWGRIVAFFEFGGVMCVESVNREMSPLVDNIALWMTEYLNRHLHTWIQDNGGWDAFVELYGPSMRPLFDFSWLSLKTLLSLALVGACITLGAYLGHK

Bcl-2-like protein 1 = Bcl-2-like protein 1 (Homo sapiens, UniProt Q07817); test: Binding affinity to Bcl-xL (unknown origin) pre-incubated for 30 mins followed by addition FAM-peptide further incubated for 20 mins by fluorescence polarization-based binding assay
Sequence of Bcl-2-like protein 1 (Q07817 whole entry): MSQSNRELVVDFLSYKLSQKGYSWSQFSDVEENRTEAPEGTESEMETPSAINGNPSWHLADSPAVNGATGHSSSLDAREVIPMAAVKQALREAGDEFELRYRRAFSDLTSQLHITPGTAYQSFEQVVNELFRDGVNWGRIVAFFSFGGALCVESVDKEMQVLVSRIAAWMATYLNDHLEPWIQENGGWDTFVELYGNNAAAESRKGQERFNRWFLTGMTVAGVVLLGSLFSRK

THP-1 [3] = test: Antiproliferative activity against human THP-1 cells assessed as growth inhibition measured after 72 hrs by CCK-8 assay; format: functional, cell-based; details: THP-1, 72 h
MOLM-13 = test: Antiproliferative activity against human MOLM-13 cells assessed as growth inhibition measured after 72 hrs by CCK-8 assay; format: functional, cell-based; details: MOLM-13, 72 h
U-937 = test: Antiproliferative activity against human U-937 cells assessed as growth inhibition measured after 72 hrs by CCK-8 assay; format: functional, cell-based; details: U-937, 72 h
HL-60 [4] = test: Induction of apoptosis in human HL-60 cells assessed as cleaved PARP at 10 to 20 uM measured after 24 hrs by Western blot analysis; format: functional, cell-based; details: dose 10-20 µM
THP-1 [5] = test: Induction of apoptosis in human THP-1 cells assessed as cleaved PARP at 10 to 20 uM measured after 24 hrs by Western blot analysis; format: functional, cell-based; details: dose 10-20 µM
HL-60 [6] = test: Induction of apoptosis in human HL-60 cells assessed as viable cells at 2.5 uM measured after 24 hrs by Annexin V-FITC/propidium iodide double staining based assay (reference value: 92.68%); format: functional; details: read-out: Activity
HL-60 [7] = test: Induction of apoptosis in human HL-60 cells assessed as early apoptotic cells at 2.5 uM measured after 24 hrs by Annexin V-FITC/propidium iodide double staining based assay (reference value: 3.37%); format: functional
HL-60 [8] = test: Induction of apoptosis in human HL-60 cells assessed as late apoptotic cells at 2.5 uM measured after 24 hrs by Annexin V-FITC/propidium iodide double staining based assay (reference value: 3.78%); format: functional
HL-60 [9] = test: Induction of apoptosis in human HL-60 cells assessed as viable cells at 5 uM measured after 24 hrs by Annexin V-FITC/propidium iodide double staining based assay (reference value: 92.68%); format: functional; details: read-out: Activity
HL-60 [10] = test: Induction of apoptosis in human HL-60 cells assessed as early apoptotic cells at 5 uM measured after 24 hrs by Annexin V-FITC/propidium iodide double staining based assay (reference value: 3.37%); format: functional
HL-60 [11] = test: Induction of apoptosis in human HL-60 cells assessed as necrotic cells at 5 uM measured after 24 hrs by Annexin V-FITC/propidium iodide double staining based assay (reference value: 0.18%); format: functional
HL-60 [12] = test: Induction of apoptosis in human HL-60 cells assessed as viable cells at 10 uM measured after 24 hrs by Annexin V-FITC/propidium iodide double staining based assay (reference value: 92.68%); format: functional; details: read-out: Activity
HL-60 [13] = test: Induction of apoptosis in human HL-60 cells assessed as late apoptotic cells at 10 uM measured after 24 hrs by Annexin V-FITC/propidium iodide double staining based assay (reference value: 3.78%); format: functional
THP-1 [14] = test: Induction of apoptosis in human THP-1 cells assessed as viable cells at 5 uM measured after 24 hrs by Annexin V-FITC/propidium iodide double staining based assay (reference value: 93.02%); format: functional; details: read-out: Activity
THP-1 [15] = test: Induction of apoptosis in human THP-1 cells assessed as early apoptotic cells at 5 uM measured after 24 hrs by Annexin V-FITC/propidium iodide double staining based assay (reference value: 4.04%); format: functional
THP-1 [16] = test: Induction of apoptosis in human THP-1 cells assessed as late apoptotic cells at 5 uM measured after 24 hrs by Annexin V-FITC/propidium iodide double staining based assay (reference value: 2.81%); format: functional
THP-1 [17] = test: Induction of apoptosis in human THP-1 cells assessed as necrotic cells at 5 uM measured after 24 hrs by Annexin V-FITC/propidium iodide double staining based assay (reference value: 0.13%); format: functional
THP-1 [18] = test: Induction of apoptosis in human THP-1 cells assessed as early apoptotic cells at 10 uM measured after 24 hrs by Annexin V-FITC/propidium iodide double staining based assay (reference value: 4.04%); format: functional
THP-1 [19] = test: Induction of apoptosis in human THP-1 cells assessed as late apoptotic cells at 10 uM measured after 24 hrs by Annexin V-FITC/propidium iodide double staining based assay (reference value: 2.81%); format: functional
THP-1 [20] = test: Induction of apoptosis in human THP-1 cells assessed as necrotic cells at 10 uM measured after 24 hrs by Annexin V-FITC/propidium iodide double staining based assay (reference value: 0.13%); format: functional
THP-1 [21] = test: Induction of apoptosis in human THP-1 cells assessed as viable cells at 20 uM measured after 24 hrs by Annexin V-FITC/propidium iodide double staining based assay (reference value: 93.02%); format: functional; details: read-out: Activity
THP-1 [22] = test: Induction of apoptosis in human THP-1 cells assessed as early apoptotic cells at 20 uM measured after 24 hrs by Annexin V-FITC/propidium iodide double staining based assay (reference value: 4.04%); format: functional
THP-1 [23] = test: Induction of apoptosis in human THP-1 cells assessed as late apoptotic cells at 20 uM measured after 24 hrs by Annexin V-FITC/propidium iodide double staining based assay (reference value: 2.81%); format: functional
THP-1 [24] = test: Induction of apoptosis in human THP-1 cells assessed as necrotic cells at 20 uM measured after 24 hrs by Annexin V-FITC/propidium iodide double staining based assay (reference value: 0.13%); format: functional
[25] = Metabolic stability in rat plasma assessed as compound remaining measured immediately after addition of compound by LC-MS/MS analysis; format: ADME, cell-free; details: read-out: Stability
[26] = Metabolic stability in rat plasma assessed as compound remaining measured after 10 mins by LC-MS/MS analysis; format: ADME, cell-free; details: read-out: Stability
[27] = Metabolic stability in rat plasma assessed as compound remaining measured after 60 mins by LC-MS/MS analysis; format: ADME, cell-free; details: read-out: Stability
[28] = Metabolic stability in rat plasma assessed as compound remaining measured after 120 mins by LC-MS/MS analysis; format: ADME, cell-free; details: read-out: Stability
[29] = Metabolic stability in rat liver microsomes assessed as compound remaining measured after 15 mins by LC-MS/MS analysis; format: ADME, Microsome; details: read-out: Stability
[30] = Metabolic stability in rat liver microsomes assessed as compound remaining measured after 30 mins by LC-MS/MS analysis; format: ADME, Microsome; details: read-out: Stability
[31] = Metabolic stability in rat liver microsomes assessed as compound remaining measured after 45 mins by LC-MS/MS analysis; format: ADME, Microsome; details: read-out: Stability
[32] = Metabolic stability in rat liver microsomes assessed as compound remaining measured after 60 mins by LC-MS/MS analysis; format: ADME, Microsome; details: read-out: Stability
[33] = Metabolic stability in rat liver microsomes assessed as intrinsic clearance by LC-MS/MS analysis; format: ADME, Microsome; details: read-out: CLH
THP-1 [34] = test: In vivo antitumor activity against human THP-1 cells xenografted in female NOD SCID mouse assessed as tumor growth inhibition at 80 mg/kg, ip once daily after 10 days of tumor inoculation treated for 14 days relative to control; format: functional; details: THP-1, 336 h, time 14 day, read-out: TGI

SMILES	IC50 (HL-60 [1]) [µM]	IC50 [2] [µM]	IC50 (Bcl-2-like protein 1) [µM]	IC50 (THP-1 [3]) [µM]	IC50 (MOLM-13) [µM]	IC50 (U-937) [µM]	Activity (HL-60 [4])	Activity (THP-1 [5])	viability at 2.5 µM (HL-60 [6]) [%]	Activity (HL-60 [7]) [%]	Activity (HL-60 [8]) [%]	viability at 5 µM (HL-60 [9]) [%]	Activity (HL-60 [10]) [%]	Activity (HL-60 [11]) [%]	viability at 10 µM (HL-60 [12]) [%]	Activity (HL-60 [13]) [%]	viability at 5 µM (THP-1 [14]) [%]	Activity (THP-1 [15]) [%]	Activity (THP-1 [16]) [%]	Activity (THP-1 [17]) [%]	further results
Cc1nn(C)c(COc2ccc(N3CCN(S(=O)(=O)N(C)C)CC3)cc2)c1-c1cccc2c(CCCOc3cccc4ccccc34)c(C(=O)O)n(CCN3CCOCC3)c12	5.53	> 100	> 100	5.65	8.15	4.71	Active	Active	96.2	0.97	2.14	92.6	1.28	1.28	33	50.33	94	3.36	2.54	0.15	Activity (THP-1 [18]): 4.2%; Activity (THP-1 [19]): 2.8%; Activity (THP-1 [20]): 0.09%; viability at 20 µM (THP-1 [21]): 41.9%; Activity (THP-1 [22]): 33.09%; Activity (THP-1 [23]): 24.35%; Activity (THP-1 [24]): 0.62%; remaining at 0 min [25]: 100%; remaining at 10 min [26]: 93.3%; remaining at 1 h [27]: 106%; remaining at 2 h [28]: 114%; remaining at 0.25 h [29]: 67.6%; remaining at 0.5 h [30]: 51.8%; remaining at 0.75 h [31]: 43.7%; remaining at 1 h [32]: 31.6%; microsomal CLint [33]: 34.9 µL/min/mg; inhibition in vivo at 80 mg/kg (THP-1 [34]): 58.7%
Cc1cc(OCCCc2c(C(=O)O)n(CCN3CCOCC3)c3c(-c4ccccc4Cn4cc(CCN(CCN5CCOCC5)S(=O)(=O)c5ccc(F)cc5)c5ccccc54)cccc23)cc(C)c1Cl	5.2	> 100	> 100	8.83	8.52	8.33	Active	Active	92.8	3.06	3.95	81.9	4.06	0.57	41.2	46.1	93.2	4.1	2.59	0.15	Activity (THP-1 [18]): 4.14%; Activity (THP-1 [19]): 4.12%; Activity (THP-1 [20]): 0.14%; viability at 20 µM (THP-1 [21]): 68.6%; Activity (THP-1 [22]): 24.61%; Activity (THP-1 [23]): 6.3%; Activity (THP-1 [24]): 0.52%; remaining at 0 min [25]: 100%; remaining at 10 min [26]: 101%; remaining at 1 h [27]: 94.8%; remaining at 2 h [28]: 82.1%; remaining at 0.25 h [29]: 67.4%; remaining at 0.5 h [30]: 53%; remaining at 0.75 h [31]: 46%; remaining at 1 h [32]: 34.1%; microsomal CLint [33]: 30.6 µL/min/mg; inhibition in vivo at 80 mg/kg (THP-1 [34]): 57.4%
